Assay results: US11071737B2, “Drug inclusion complex, preparation thereof, and preparation method thereof” (priority 2015, dated 2021)
Blank lines part the entries; values can stand above or below the compound they belong to.

Assays:
[1] = Formulation of drug-containing HP-β-CD solutions (concentration by HPLC, observation on standing); conditions: 21 mg/ml added to 30% HP-β-CD solution pH 1.2, not completely dissolved, 0.45 μm PES filter
Procedure: The drug was dissolved completely by ultrasound (ultrasonic frequency was 59 kHz).
4. pH adjustment: The pH of the drug solution was adjusted to about 6.0 with 5N NaOH aqueous solution and 0.1 N NaOH aqueous solution.

[2] = Inclusion ability of different concentrations and kinds of cyclodextrins for encapsulating API
Procedure: Different kinds of cyclodextrins were dissolved with a pH 1.2 aqueous hydrochloric acid solution (0.1N) to determine the saturation concentration of each cyclodextrin.
(1) A certain amount of α-, β- and γ-cyclodextrin were weighed and added into a 10 mL volumetric flask, then added aqueous hydrochloric acid solution of pH 1.2 gradually until reaching the scale of the flask, shocked and performed ultrasound to dissolve the cyclodextrin. The maximum amount of cyclodextrin capable of being dissolved in a 10 mL solution was recorded.
(2) 8% α-cyclodextrin solution, 1% β-cyclodextrin solution, 20% γ-cyclodextrin solution, 20%, 30%, and 40% sulfobutyl ether-β-cyclodextrin solution and 20%, 30%, and 40% hydroxypropyl-β-cyclodextrin solution were formulated with hydrochloric acid aqueous solution of pH 1.2.
A certain amount of API was weighed and added into an appropriate volume of the cyclodextrin solution. If API was completely dissolved, the solution was filtered with a 0.45 μm PTFE filter membrane, and pH was slowly adjusted to 4.0 with a 5N NaOH aqueous solution and a 0.1N NaOH aqueous solution, observing during the pH adjusting procedure. If the solution becomes turbid when adjusting the pH, try to reduce the concentration of API. The clear solution after the pH adjustment was left to stand to observe the state of the solution after standing for 2 hours, 4 hours, and 24 hours.

SMILES: O=C(Cc1ccc(-c2ccc(N3CCOCC3)cc2)cn1)NCc1cccc(F)c1.O=S(=O)(O)c1ccccc1 [KX2-361.benzene sulfonate]
concentration after filtering, calibrated with HPLC [1]: 20660 µg/mL
Solution phenomenon when pH is adjusted to 4 ([2]; API 0.5 mg/ml in 20% γ-CD (174:1)): turbid

maximum solubility in aqueous hydrochloric acid solution of pH 1.2 ([2]; pH 1.2): about 1%
SMILES: OC[C@H]1O[C@@H]2O[C@H]3[C@H](O)[C@@H](O)[C@@H](O[C@H]4[C@H](O)[C@@H](O)[C@@H](O[C@H]5[C@H](O)[C@@H](O)[C@@H](O[C@H]6[C@H](O)[C@@H](O)[C@@H](O[C@H]7[C@H](O)[C@@H](O)[C@@H](O[C@H]8[C@H](O)[C@@H](O)[C@@H](O[C@H]1[C@H](O)[C@H]2O)O[C@@H]8CO)O[C@@H]7CO)O[C@@H]6CO)O[C@@H]5CO)O[C@@H]4CO)O[C@@H]3CO [β-cyclodextrin]

maximum solubility in aqueous hydrochloric acid solution of pH 1.2 ([2]; pH 1.2): about 20%
SMILES: OC[C@H]1O[C@@H]2O[C@H]3[C@H](O)[C@@H](O)[C@@H](O[C@H]4[C@H](O)[C@@H](O)[C@@H](O[C@H]5[C@H](O)[C@@H](O)[C@@H](O[C@H]6[C@H](O)[C@@H](O)[C@@H](O[C@H]7[C@H](O)[C@@H](O)[C@@H](O[C@H]8[C@H](O)[C@@H](O)[C@@H](O[C@H]9[C@H](O)[C@@H](O)[C@@H](O[C@H]1[C@H](O)[C@H]2O)O[C@@H]9CO)O[C@@H]8CO)O[C@@H]7CO)O[C@@H]6CO)O[C@@H]5CO)O[C@@H]4CO)O[C@@H]3CO [γ-cyclodextrin]

SMILES: OC[C@H]1O[C@@H]2O[C@H]3[C@H](O)[C@@H](O)[C@@H](O[C@H]4[C@H](O)[C@@H](O)[C@@H](O[C@H]5[C@H](O)[C@@H](O)[C@@H](O[C@H]6[C@H](O)[C@@H](O)[C@@H](O[C@H]7[C@H](O)[C@@H](O)[C@@H](O[C@H]1[C@H](O)[C@H]2O)O[C@@H]7CO)O[C@@H]6CO)O[C@@H]5CO)O[C@@H]4CO)O[C@@H]3CO [α-cyclodextrin]
maximum solubility in aqueous hydrochloric acid solution of pH 1.2 ([2]; % (w/v), 10 mL): about 8%
